One data set has as its target human PTH1R (Homo sapiens (Human), UniProt Q03431). The data set is described as follows: In vitro cAMP signal activity via the human PTH1R (HKRK-B7 cells). The conditions noted are these: 100 nM human PTH(1-34) = 100%; for EC20: concentration giving 20% cAMP signaling activity; for EC50: concentration giving 50% cAMP signaling activity. Type of data set: cell-based. How it is done:
Measurement of In Vitro cAMP Signal Activity of Compounds Via the Human PTH1R
Human PTH(1-34) and calcitonin were purchased from Peptide Institute, Inc. (Osaka, Japan), dissolved in 10 mM acetic acid to 1 mM and stored in a −80° C. freezer.
Cells were cultured in Dulbecco's modified Eagle's medium (DMEM) supplemented with 10% fetal bovine serum (Hyclone), 100 units/ml penicillin G and 100 μg/ml streptomycin sulfate (Invitrogen Corp) at 37° C. in a humidified atmosphere containing 5% CO2.
cAMP signal transduction analysis utilized LLC-PK1 cells not expressing the PTH1R, and HKRK-B7 cells, that is, LLC-PK1 cells overexpressing the human PTH1R at 9.5×10^5 receptors/cell (Takasu et al., J. Bone. Miner. Res. 14:11-20, 1999).
HKRK-B7 or LLC-PK1 cells were seeded into a 96-well plate at 1×10^5 cells/well and incubated overnight. On the following day, 50 μl of cAMP assay buffer (DMEM, 2 mM IBMX, 0.2 mg/ml bovine serum albumin, 35 mM Hepes-NaOH, pH 7.4) containing human PTH(1-34) or each compound was added and the plate was placed in a 37° C. incubator. The cells were incubated for 20 minutes. After removing the medium, the cells were washed with 100 μl of cAMP assay buffer once. The plate was placed on dry ice powder to freeze the cells and then removed from the dry ice. The cells were lysed with 40 μl of 50 mM HCl and frozen again on dry ice. The amount of intracellular cAMP produced was measured using a commercially available cAMP EIA kit (Biotrack cAMP EIA system, GE health care).
Analyses were performed using a variable gradient S-shaped dose-response curve equation.

In the next data set the target is rat PTH1R (Rattus norvegicus (Rat), UniProt P25961). The data set is described as follows: In vitro cAMP signaling activity via the rat PTH1R (LLC-PK46_RATO_PTH1R cells). The conditions noted are these: LLC-PK46_RATO_PTH1R cells overexpressing rat PTH1R; for EC20: 20% cAMP signaling activity; for EC50: 50% cAMP signaling activity. It is filed as cell-based. The source says:
Measurement of the Compounds' In Vitro cAMP Signaling Activity Via the Rat PTH1R
Instead of HKRK-B7 cells, LLC-PK46_RATO_PTH1R cells overexpressing rat PTH1R, which were established at Chugai Pharmaceutical, were used to take measurements in a similar manner to Test Example 1.

Data set [1] is described as follows: Metabolic stability using human liver microsomes. Type of data set: in vitro ADME. The settings on record: pH 7.4; human liver microsomes 0.5 mg/mL, compound 1 μM, NADPH 1 mM, 37° C.; read-out: Clearance. How it is done: Examination of Metabolic Stability Using Human Liver Microsomes
In 0.1 M phosphate buffer (pH7.4), human liver microsomes were incubated with a compound or a comparative example in the coexistence of NADPH at 37° C. for a specified amount of time. The concentration of the parent compound at each reaction time was measured using LC/MS/MS, and inherent clearance (μL/min/mg protein) was calculated from the slope of the reaction time versus residual rate.
(§1) Compound concentration: 1 μM
Reaction time: 0, 5, 15, and 30 minutes
(Liver microsomes are a subcellular fraction often used to study metabolism.)

Data set [2] can be described thus: Metabolic stability using rat hepatocyte. Type of data set: in vitro ADME. The settings on record: for hepatocyte CLint at 1 μM: rat (SD, female) hepatocytes 1×10^6 cells/mL, compound 1 μM, 37° C., read-out: Clearance. How it is done: Examination of Metabolic Stability Using Rat Hepatocyte
Liver cells were prepared from the liver of rats (SD, female) by a collagenase perfusion method. A compound of the Examples or a Comparative Example was added, and this was incubated at 37° C. for a specified amount of time, followed by addition of a reaction-stopping solution. The concentration of the parent compound at each reaction time was measured using LC/MS/MS, and inherent clearance (μL/10^6 cells/min) was calculated from the slope of the reaction time versus residual rate.
Cell concentration: 1×10^6 cells/mL
as §1
Medium: Williams' medium E
Reaction-stopping solution: acetonitrile/2-propanol (4/6, v/v)

For a further data set, the system named is TPTX rat model. As to the kind of experiment: Calcemic action in the TPTX rat model. The conditions noted are these: TPTX rats, oral 30 mg/kg; for change of serum Ca concentration from the Pre-value: up to 24 hours after administration. Type of data set: in vivo. The method, then: Calcemic Action in the TPTX Rat Model
Four-week old female Crl:CD(SD) rats were obtained from Charles River Japan (Atsugi Breeding Center), and were acclimated to standard laboratory conditions of 20-26° C. and 35-75% humidity for one week. The rats were given tap water and were fed ad libitum with standard rodent chow (CE-2) (CLEA Japan, Inc.) containing 1.1% calcium, 1.0% phosphoric acid, and 250 IU/100 g of vitamin D3.
TPTX was performed on five-week old rats. Some of the individuals were subjected to sham operation (Sham). Individuals whose serum Ca concentration was less than 8 mg/dL on four days after the operation were selected for use as TPTX rats. On five days after the operation, the rats were assigned to eight TPTX groups and one Sham group (n=5, each group) based on their body weight and serum Ca concentration measured on four days after the operation. The solvent alone was orally administered to the Sham group and the TPTX-Vehicle group at a volume of 10 mL/kg. Each test article was orally administered individually to each TPTX test article group by dissolving it in a solvent at a dose of 30 mg/10 mL/kg. The solvent composition was 10% dimethylsulfoxide (Wako Pure Chemical Industries, Ltd.), 10% Cremophor EL (Sigma-Aldrich Japan LLC), 20% hydroxypropyl-β-cyclodextrin (Nihon Shokuhin Kako Co., Ltd.), glycine (Wako Pure Chemical Industries, Ltd.); and the pH was adjusted to 10. Immediately before administration of each sample, Pre-blood collection was performed, and blood collection was carried out at 2, 6, 10, and 24 hours after administration to measure the serum Ca concentration. Each blood collection was carried out from the jugular vein under isoflurane inhalation anesthesia.
Serum Ca measurement: Serum obtained by centrifugation from the collected blood was measured by using an automatic analyzer TBA-120FR (Toshiba Medical Systems Corporation).
For statistical analysis of the animal studies, data are shown as mean±standard error (SE). Statistical analysis were performed by unpaired test of the SAS Preclinical Package (Ver. 5.00.010720, SAS Institute Japan, Tokyo, Japan).

The structures appear in SMILES notation.

Data on two compounds can be found in patent publication US9428505B2, “Hydantoin derivative” (Chugai Seiyaku Kabushiki Kaisha, priority 2012, dated 2016).

In general, EC20 refers to the concentration at which the effect reaches the 20% level. The low end stands for greater potency, the high end for weaker potency. As usually defined, the EC50 is the concentration needed to bring the measured effect to its halfway point.

Sequence of human PTH1R (Q03431 27-593): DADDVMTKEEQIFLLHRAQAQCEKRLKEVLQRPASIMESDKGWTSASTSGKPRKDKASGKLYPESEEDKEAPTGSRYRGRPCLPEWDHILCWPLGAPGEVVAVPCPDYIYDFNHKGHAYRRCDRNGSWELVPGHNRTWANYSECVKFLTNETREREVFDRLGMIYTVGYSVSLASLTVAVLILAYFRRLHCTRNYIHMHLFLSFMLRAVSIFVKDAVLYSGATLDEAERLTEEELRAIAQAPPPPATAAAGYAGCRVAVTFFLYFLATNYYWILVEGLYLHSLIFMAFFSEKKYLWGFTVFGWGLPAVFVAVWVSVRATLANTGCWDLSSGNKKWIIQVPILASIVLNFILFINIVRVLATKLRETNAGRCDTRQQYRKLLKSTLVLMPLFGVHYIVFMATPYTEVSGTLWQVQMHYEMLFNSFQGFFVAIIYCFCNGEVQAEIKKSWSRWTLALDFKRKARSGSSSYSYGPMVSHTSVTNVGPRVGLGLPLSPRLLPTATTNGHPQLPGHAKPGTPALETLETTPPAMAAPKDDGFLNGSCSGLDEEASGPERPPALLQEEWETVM
Sequence of rat PTH1R (P25961 27-591): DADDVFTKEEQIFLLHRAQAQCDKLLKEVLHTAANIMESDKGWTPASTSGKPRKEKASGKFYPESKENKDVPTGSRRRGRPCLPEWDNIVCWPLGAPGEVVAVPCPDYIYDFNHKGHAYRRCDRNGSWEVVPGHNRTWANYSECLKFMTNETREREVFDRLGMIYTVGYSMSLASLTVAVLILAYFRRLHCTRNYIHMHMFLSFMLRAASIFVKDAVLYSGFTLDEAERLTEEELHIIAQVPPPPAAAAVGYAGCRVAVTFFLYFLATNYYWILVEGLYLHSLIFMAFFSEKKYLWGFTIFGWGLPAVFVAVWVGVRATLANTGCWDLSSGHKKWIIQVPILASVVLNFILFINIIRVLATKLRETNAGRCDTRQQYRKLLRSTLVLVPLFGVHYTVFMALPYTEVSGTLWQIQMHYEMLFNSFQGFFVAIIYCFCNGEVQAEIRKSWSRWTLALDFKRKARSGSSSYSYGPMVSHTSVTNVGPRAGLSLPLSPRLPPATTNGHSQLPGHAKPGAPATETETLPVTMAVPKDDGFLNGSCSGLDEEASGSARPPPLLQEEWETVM

Take `Cc1cc(N2C(=O)CNC2=O)ccc1CCS(=O)(=O)N1CCC2(CC1)N=C(c1cccc(OC(F)(F)F)c1)NC2=O` [Comparative Example 1, reference compound]: on human PTH1R, the EC20 amounted to 1500 nM and the EC50 worked out at 4800 nM. Besides, at rat PTH1R, the EC20 turned out to be 800 nM and the EC50 was found to be 2300 nM. The microsomal CLint at 1 μM in data set [1] worked out at 84 µL/min/mg. For the same compound, in data set [2], the hepatocyte CLint at 1 μM was found to be 5.8 µL/min/1e6 cells. For the same compound, in the data set on TPTX rat model, the “achievement of therapeutic target range of serum Ca concentration of 7.6 to 8.8 mg/dL” value is on record as “could not be achieved” and the “change of serum Ca concentration from the Pre-value” was “smaller positive changes from the Pre-value”.
On human PTH1R, `Cc1cc(N2C(=O)NC(=O)C2(C)C)cc(C)c1CCS(=O)(=O)N1CCC2(CC1)N=C(c1ccc(OC(F)(F)F)cc1)NC2=O` [Compound 7, 1-(3,5-dimethyl-4-(2-((4-oxo-2-(4-(trifluoromethoxy)phenyl)-1,3,8-triazaspiro[4.5]deca-1-en-8-yl)sulfonyl)ethyl)phenyl)-5,5-dimethylimidazolidine-2,4-dione] displayed an EC20 of 1100 nM and an EC50 of 4100 nM. Also, at rat PTH1R, the EC20 amounted to 500 nM and the EC50 came out at 2400 nM. Besides, the microsomal CLint at 1 μM in data set [1] amounted to 30 µL/min/mg. In data set [2], the hepatocyte CLint at 1 μM turned out to be 0.9 µL/min/1e6 cells. Also, the “rat hepatocyte metabolic stability compared to Comparative Examples 1, 2, 3, 5, and 6” value in data set [2] (rat hepatocytes) was “increased”. Also, in the data set with TPTX rat model, the “achievement of therapeutic target range of serum Ca concentration of 7.6 to 8.8 mg/dL” value is “achieved the therapeutic target range” and the “change of serum Ca concentration from the Pre-value” was “large positive changes from the Pre-value”. In addition, in the data set on TPTX rat model (p<0.05), the “significance of serum Ca change compared to Comparative Examples 1 and 2” value is “statistically significant”.
